Reference: patent US10085965B2, “Cannabinoid alcoholic drink” (priority 2016, dated 2018)

Experiments:
[1] = tested on: binge alcohol-induced neurodegeneration; conditions: transdermal delivery, rodent model; Liputa et al. 2013; cited from earlier work
[2] = Effects reported by people when the CBD alcoholic drink is consumed; assay type: in vivo; conditions: CBD consumed together with alcohol in the drink; reports of consumers
From the text: When consumed, the positive effects of the CBD help to offset the deleterious effects of the alcohol.

[3] = Dissolution of CBD in ethanol and consumable alcohol (precipitation / clarity); assay type: physicochemical
Description: The Combining Cannabinoid Solution with Consumable Alcohol(s) step 156 involves adding the Solution from 154 to a plurality of consumable alcohols measured in 155 in order to create a CAD. In one example, 50 mg of isolated cannabinoid is measured 151. Approximately 5 mL of ethanol is measured 152. The cannabinoid is combined with the ethanol 153. A cannabinoid solution is created by ensuring the cannabinoid is fully dissolved in the ethanol 154. The resulting solution is then combined with one or more consumable alcohols 156. In this example, approximately 745 mL of vodka, to create a standard 750 mL bottle of cannabinoid infused vodka. In other embodiments, other volumes of CADs can be produced. In yet another embodiment, the volume fraction of cannabinoid/ethanol solution in total volume of CADs is equal to or less than 1%.
One particular cannabinoid that can be used is CBD. […] Thus, the CBD and ethanol combine to remain as a fully dissolved, clear solution. […]
The Combining CBD/Ethanol Solution with consumable Alcohol(s) step 256 involves adding the Solution from 254 to the plurality of consumable alcohols measured in 255 in order to create a CAD. In one example, 50 mg of isolated CBD is measured 251. Approximately 5 mL of ethanol is measured 252. […]

C=C(C)[C@@H]1CCC(C)=C[C@H]1c1c(O)cc(CCCCC)cc1O [CBD, cannabidiol]
effect on binge alcohol-induced neurodegeneration [1]: attenuate binge alcohol-induced neurodegeneration | effects reported when consumed [2]: euphoria, a sense of being upbeat and feeling little to no effect of the alcohol | dissolution of CBD in ethanol ([3]; 7.8 mg CBD in 1 mL ethanol): no problem with dissolution | precipitation of CBD from the solution ([3]; amounts/ratios described: 50 mg in approx. 5 mL ethanol, combined with approx. 745 mL vodka, room temperature): will not precipitate out
